Reference: publication PMC9649909, “Wnt-pathway inhibitors with selective activity against triple-negative breast cancer: From thienopyrimidine to quinazoline inhibitors” (Frontiers in Pharmacology, 2022)
Read-outs that look alike come from different tables or passages of the source.

Experiments:
in vitro = conditions: human
Method: (§1) The simplicity of the scaffold combined with synthetic accessibility allows building a library of compounds and performing structure activity relationship (SAR) studies of the three main parts of the molecule: the top part, the linker and the core (Figure 2).
(§2) The synthesized compounds were used to explore SAR of three defined areas of investigation (Figure 2). All compounds were tested in the HCC1395 TNBC cell line using the GSK3β inhibitor to induce β-catenin signaling since 4a acted downstream of GSK3β (Figure 2). Both inhibition of β-catenin signaling measured by the TopFlash reporter and cytotoxicity measured by the Renilla reporter were assessed.
(§3) The Wnt3a or CHIR99021-stimulated luciferase activity in HCC1395 TNBC cell line stably transfected with the TopFlash reporter was analyzed essentially as described for the BT-20 TNBC cell line ([Shaw et al., 2019b]; [Koval et al., 2021]). Reporter cells were seeded at 10,000 cells/well in a white opaque 384-well plate in the final volume of 20 μl of DMEM medium supplemented with 10% FCS. The cells were maintained incubated at 37°C, 5% CO2 overnight for attachment. Subsequently, they were transfected by a plasmid encoding constitutively expressed Renilla luciferase under the CMV promoter overall as described in the manufacturer’s protocol using 12 μg/ml of DNA and 40 μl/ml XtremeGENE nine reagent. The next day, the medium in each well was replaced with a 10 μl of fresh medium containing compound of interest, and, after 1 h of preincubation with the compounds, additional 10 μl of medium supplemented with Wnt3a [purified as described ([Willert et al., 2003]; [Koval and Katanaev, 2011])] or CHIR99021 were added creating respective final concentrations of 2.5 μg/ml or 5 μM of each. In case of other signal transduction reporters, no additional stimulation was performed. Compound dilutions were prepared by serial dilution in DMSO and diluted with the amount of medium necessary to obtain their final concentrations indicated on the figures and tables and maintain concentration of DMSO of 0.5% in all assay points. After overnight incubation, the supernatant in each well was removed, and the luciferase activity was measured as described ([Dyer et al., 2000]; [Huber et al., 2021]; [Pellissier et al., 2021]). The culture medium was completely removed from all wells of the plate. Finally, the luciferase activity of the firefly and Renilla luciferases was detected sequentially in individual wells of a 384-well plate through injection of corresponding measurement solutions and immediate reading (400 ms integration time) in Infinite M Plex multifunctional plate reader with injection module.

BT-20 TNBC cell line = test: MTT survival assay BT-20; assay type: cell-based; conditions: Homo sapiens, BT-20; Table S2; read-out: MTT BT-20 IC50
Method: (§4) Indicated TNBC cell lines were detached and resuspended at 120,000 cells/ml and added into each well of a transparent 384-well plate in the final volume of 20 µl/well. The cells were maintained in DMEM containing 10% FBS at 37°C, 5% CO2 overnight. Next day, the medium in each well was replaced by 40 μl of the fresh one containing the indicated concentrations of compounds. In case of drug combination experiments, each compound dilution was delivered in corresponding well in 20 μl of medium. […] After incubation for 3–4 days, depending on the cell line, the medium in each well was replaced by 25 μl of 0.5 mg/ml Thiazolyl blue solution in 1xPBS following by incubation for 3 h at 37°C. Then the solution was removed and 25 μl DMSO was added into each well. Absorbance at 510 nm was measured in a Tecan Infinite M200 PRO plate reader.

[1] = tested on: non-cancerous breast epithelial cell line MCF10a; test: MTT survival assay MCF10a; assay type: cell-based; conditions: for IC50: Homo sapiens, MCF-10A
Method: as §4

HCC1395 TNBC cell line = test: MTT survival assay HCC1395; assay type: cell-based; conditions: Homo sapiens, HCC1395; Table S2; read-out: MTT HCC-1395 IC50
Method: as §4

[2] = tested on: β-catenin-dependent Wnt-pathway; test: TopFlash luciferase reporter assay, CHIR99021-stimulated, HCC1395; assay type: cell-based; conditions: for Emax / IC50: Homo sapiens; for Emax / IC50 / HCC1395 TopFlash Efficacy: stimulation with CHIR99021 (GSK3β inhibitor); for Emax: read-out: HCC1395 TopFlash Efficacy; for IC50: read-out: HCC1395 TopFlash IC50
Description: Both stimulations abolish formation of the destruction complex, a multiprotein complex consisting of Axin, adenomatous polyposis coli (APC), glycogen synthase kinase three beta (GSK3β), and casein kinase one alpha (CK1α). Upon inactivation of the complex, β-catenin accumulates in the cytoplasm and translocates into the nucleus where it interacts with transcription factors. These downstream events are quantified by a Luciferase transcription-based readout assay (TopFlash assay).

[3] = tested on: MDA-MB-468 TNBC cell line; test: MTT survival assay MDA-MB-468; assay type: cell-based; conditions: Homo sapiens, MDA-MB-468; Table S2
Method: as §4

HCC1806 TNBC cell line = test: MTT survival assay HCC1806; assay type: cell-based; conditions: Table S2; for IC50: Homo sapiens, HCC1806, read-out: MTT HCC1806 IC50
Method: as §4

[4] = tested on: MDA-MB-231 TNBC cell line; test: MTT survival assay MDA-MB-231; assay type: cell-based; conditions: for IC50: Homo sapiens
Method: as §4

HCC1395 cells = test: in vitro
Method: as §1, §2, §3

[5] = Table S2, read-out: MTT MCF10 IC50
[6] = MDA-MB-231, Table S2, read-out: MTT MDA-MB-231 IC50

Structure (SMILES)	IC50 (in vitro; HCC1395 Cytotoxicity IC50)	IC50 (BT-20 TNBC cell line)	IC50 [1, 5]	IC50 (HCC1395 TNBC cell line)	Emax ([2]; HCC1395, HCC1395)	IC50 ([2]; HCC1395, HCC1395)	IC50 [3]	IC50 (HCC1806 TNBC cell line)	IC50 [4, 6]	MTT MDA-MB-231 Comments ([4]; Table S2)	MTT HCC1806 Comments (HCC1806 TNBC cell line)	HCC1395 TopFlash Efficacy ([2]; HCC1395)	MTT MDA-MB-231 plateau ([4]; Table S2)	IC50 (in vitro)	further results
Cc1ccc(CNc2ncnc3sccc23)cc1 [Compound 4o, N-(4-methylbenzyl)thieno[2,3-d]pyrimidin-4-amine]	> 50 µM	2.85 µM	6.18 µM	1.35 µM	72.7 ± 19.5%	4.61 ± 1.91 µM	1.02 µM	2.71 µM	> 10 µM	Inactive					fold improvement in the activity compared to 4a ([2]; TopFlash IC50 vs 4a): 2 fold
COc1cc(CNc2ncnc3sccc23)ccc1Cl [Compound 4q, N-(4-chloro-3-methoxybenzyl)thieno[2,3-d]pyrimidin-4-amine]	> 50 µM	0.96 µM	> 10 µM	0.63 µM	68.5 ± 2.9%	1.33 ± 0.07 µM	0.57 µM	> 10 µM	> 10 µM	Inactive	Inactive				MTT MCF10 Comments ([1]; Table S2): Inactive
c1ccc(CCNc2ncnc3sccc23)cc1 [Compound 5g, N-phenethylthieno[2,3-d]pyrimidin-4-amine]	> 50 µM	> 50 µM	> 50 µM	4.59 µM	89%	2.64 ± 1.22 µM	> 50 µM	> 50 µM	> 50 µM						GSK HCC1395 Renilla Comments (HCC1395 cells): Non-toxic; IC50 ([1]; Figure 3B heatmap, read-out: IC50, μM (MCF10)): > 10 µM; IC50 ([4]; MDA-MB-231, Figure 3B heatmap, read-out: IC50, μM (MDA-MB-231)): > 10 µM
CN(CCc1ccccc1)c1ncnc2sccc12 [Compound 5j, N-methyl-N-phenethylthieno[2,3-d]pyrimidin-4-amine]	> 50 µM	1.63 µM	1.53 µM	2.07 µM	100%	2.04 ± 2.55 µM	0.92 µM	17.2 µM	4.71 µM			100 ± 0%	92.68		selectivity over the control cells (difference in IC50, MCF10a vs HCC1395) ([1]; MTT IC50 ratio MCF10a / HCC1395): less than 3 fold
COc1ccc(CNc2ncnc3ccccc23)cc1 [Compound 9c, N-(4-methoxybenzyl)quinazolin-4-amine]		3.81 µM	7.94 µM	1.17 µM	81.5%	4.76 ± 0.23 µM	0.44 µM	> 10 µM	> 10 µM	Inactive	Inactive	81.5 ± 10.61%		> 50 µM	
Clc1ccc(CNc2ncnc3ccccc23)cc1 [Compound 9e, N-(4-chloro)quinazolin-4-amine]		9.6 µM	> 10 µM	0.92 µM			2.22 µM	11.4 µM	26.9 µM				100	> 50 µM	Emax ([2]; HCC1395): 96 ± 5.7%; IC50 ([2]; HCC1395): 2.18 ± 0.85 µM; IC50 ([4]; MDA-MB-231, read-out: IC50, μM (MDA-MB-231)): > 10 µM
